Experimental data published in patent US11230547B2, “Purine inhibitors of human phosphatidylinositol 3-kinase delta” (Merck Sharp & Dohme Corp., priority 2017, dated 2022).

Key:
[1] = target: PI3Kalpha (Homo sapiens (Human), UniProt P42336); assay: HTRF PI3K biochemical assay, alpha isoform (selectivity versus delta); details: relative ratio PI3K-alpha IC50 value / PI3K-delta IC50 value
Text: (§1) HTRF PI3K Biochemical Assay to Measure Intrinsic Potency of Compound Inhibitors
(§2) The PI3-Kinase biochemical assays were developed to measure the intrinsic potency and compound dependent inhibition of the alpha, beta, delta, and gamma PI3K isoform enzymes. This assay was developed and further optimized from a kit produced by Upstate (Millipore catalog #33-047) (Millipore Sigma, Billerica Mass., USA) and has been configured for high throughput screening (HTS) and structure-activity relationship (SAR) screening. Briefly, this procedure exploits the exquisite specificity and high affinity binding of […] phosphatidyl(3,4,5)triphosphate (PIP3) to the GRP1 pleckstrin homology (PH) domain to generate the signal. In the absence of PIP3, an HTRF (Homogeneous Time-Resolved Fluorescence energy transfer) complex is formed consisting of europium (u)-labeled anti-GST, GST tagged GRP1-PH domain, biotin-PIP3 (biotinylated-PIP3) and streptavidin conjugated APC (Allophycocyanin). The native PIP3 produced by PI3-Kinase activity disrupts in a competitive manner the biotin-PIP3 from the pleckstrin homology (PH) domain, resulting in the loss of energy transfer (HTRF complex) and a decrease in the signal. The format of this assay is the same for all 4 isoforms of PI3K; the differences lie in the concentration of enzyme used to achieve robust assay window. The alpha, beta, and delta assays are run at 0.5, 1, and 0.3 nM enzymes and the gamma assay is run at 5 nM enzyme. The ATP concentration is 100 uM in the alpha, beta, and delta assays and 50 uM adenosine triphosphate (ATP) in the gamma assay. All reactions are run at 5 uM PIP2.
(§3) Compounds are serially diluted (3-fold in 100% DMSO) across a 384-well polypropylene source plated from column 3 to column 12 and column 13 to column 22, to yield 10 concentration dose response for each test compound. Columns 1, 2, 23 and 24 contain either only DMSO or pharmacological known control inhibitor. Once titrations are made, 2.5 nL of the compounds on 384 well plates are reformatted and transferred by acoustic dispense in quadruplicates to a 1536 assay plate (Greiner) to assay across all four PI3K isoform enzymes.
(§4) The PI3-Kinase biochemical assay was optimized using the HTRF kit provided by Upstate (Millipore). The assay kit contains six reagents: 1) 4× Reaction Buffer; 2) native PIP2 (substrate); 3) Stop (EDTA); 4) Detection Mix A (Streptavidin-APC); 5) Detection Mix B (Eu-labeled Anti-GST plus GST-tagged PH-domain); 6) Detection Mix C. In addition, the following items were obtained or purchased; PI3Kinase (catalog #'s alpha 14-602, beta 14-603, gamma 14-558 and delta 14-604 from Upstate Biotechnology now EMD Millipore, Mahopac, N.Y., USA), dithiothreitol (Sigma-Aldrich Corp. (St. Louis, Mo., USA) Catalog #D-5545), Adenosine-5′ triphosphate (InVitrogen (Waltham, Mass., USA), Cat#AS001A), native PIP3 (PI(3,4,5)P3, diC8, H^+, CELLSIGNALS, INC., (Columbus, Ohio, USA) Cat #907) DMSO ((Sigma-Aldrich Corp. (St. Louis, Mo., USA) Catalog #472301).
(§5) PI3Kinase Reaction Buffer is prepared by dilution the stock 1:4 with de-ionized water. DTT (DL-Dithiothreitol), phosphatidylinositol 4,5-bisphosphate (PIP2) and Biotin-PIP3 were added to 1536 assay plate at a final concentration of 5 mM, […] and 25 nM on the day of use. Enzyme addition and compound pre-incubation are initiated by the addition of 1.25 ul of PI3K (at twice its final concentration) in the 1× reaction buffer to all wells using a BioRaptr™ (Beckman Coulter, Waltham, Mass. USA). Plates are incubated at room temperature for 15 minutes. Reactions are initiated by addition of 1.25 ul of 2× substrate solution (PIP2 and ATP in 1× reaction buffer) using BioRaptr™. Plates are incubated in humidified chamber at room temperature for one hour. Reactions are quenched by addition of 0.625 uL of stop solution to all wells using the BioRaptr™. […]

[2] = target: PI3Kdelta (Homo sapiens (Human), UniProt O00329); assay: HTRF PI3K biochemical assay, delta isoform; details: 0.3 nM enzyme, 100 uM ATP, 5 uM PIP2, form screened per table
Chain of PI3Kdelta (O00329 whole entry, canonical isoform): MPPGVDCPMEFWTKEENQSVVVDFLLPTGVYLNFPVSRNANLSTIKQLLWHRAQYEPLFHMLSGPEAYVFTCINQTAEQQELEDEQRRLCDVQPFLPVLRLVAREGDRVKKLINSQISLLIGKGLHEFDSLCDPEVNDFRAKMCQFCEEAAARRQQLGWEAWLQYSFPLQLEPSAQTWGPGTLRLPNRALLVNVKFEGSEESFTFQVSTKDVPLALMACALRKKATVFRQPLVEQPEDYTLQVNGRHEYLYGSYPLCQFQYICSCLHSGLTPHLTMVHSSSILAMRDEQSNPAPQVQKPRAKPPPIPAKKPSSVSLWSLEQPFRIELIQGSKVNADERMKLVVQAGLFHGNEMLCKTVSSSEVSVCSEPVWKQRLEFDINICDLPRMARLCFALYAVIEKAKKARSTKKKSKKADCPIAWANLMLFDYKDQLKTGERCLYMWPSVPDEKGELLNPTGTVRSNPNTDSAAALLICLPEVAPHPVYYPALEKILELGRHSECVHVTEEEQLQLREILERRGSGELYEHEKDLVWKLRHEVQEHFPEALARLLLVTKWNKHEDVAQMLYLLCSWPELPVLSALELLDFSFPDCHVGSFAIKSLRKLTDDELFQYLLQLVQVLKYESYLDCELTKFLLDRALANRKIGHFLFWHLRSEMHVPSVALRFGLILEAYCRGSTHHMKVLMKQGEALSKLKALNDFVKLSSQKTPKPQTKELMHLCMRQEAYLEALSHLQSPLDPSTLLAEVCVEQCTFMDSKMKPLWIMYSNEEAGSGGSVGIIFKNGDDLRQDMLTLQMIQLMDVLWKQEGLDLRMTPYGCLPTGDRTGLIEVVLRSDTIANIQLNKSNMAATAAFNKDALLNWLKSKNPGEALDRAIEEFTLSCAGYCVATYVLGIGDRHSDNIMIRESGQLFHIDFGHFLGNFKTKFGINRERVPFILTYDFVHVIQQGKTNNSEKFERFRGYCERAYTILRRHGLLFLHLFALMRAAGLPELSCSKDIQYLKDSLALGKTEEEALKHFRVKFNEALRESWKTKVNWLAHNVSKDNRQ
Chain of PI3Kdelta (P27986 whole entry partner, canonical isoform): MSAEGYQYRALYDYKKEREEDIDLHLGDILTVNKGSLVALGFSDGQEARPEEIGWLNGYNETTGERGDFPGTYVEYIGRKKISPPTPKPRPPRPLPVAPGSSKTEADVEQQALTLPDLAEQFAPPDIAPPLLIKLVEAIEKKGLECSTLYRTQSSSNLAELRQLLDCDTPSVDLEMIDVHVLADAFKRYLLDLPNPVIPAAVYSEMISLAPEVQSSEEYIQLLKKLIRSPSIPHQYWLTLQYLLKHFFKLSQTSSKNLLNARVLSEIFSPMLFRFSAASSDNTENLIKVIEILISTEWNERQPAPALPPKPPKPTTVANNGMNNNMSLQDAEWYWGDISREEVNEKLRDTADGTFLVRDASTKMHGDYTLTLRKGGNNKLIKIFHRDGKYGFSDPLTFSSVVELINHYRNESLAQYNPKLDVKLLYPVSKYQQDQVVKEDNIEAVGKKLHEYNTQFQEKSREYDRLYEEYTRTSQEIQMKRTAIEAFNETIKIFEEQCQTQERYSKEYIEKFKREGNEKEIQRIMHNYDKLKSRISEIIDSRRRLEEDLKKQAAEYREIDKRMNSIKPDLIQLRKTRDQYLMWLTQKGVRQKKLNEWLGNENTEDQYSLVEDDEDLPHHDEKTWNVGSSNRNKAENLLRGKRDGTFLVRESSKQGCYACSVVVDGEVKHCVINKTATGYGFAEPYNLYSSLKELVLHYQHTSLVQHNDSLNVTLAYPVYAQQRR
Text: as §1, §2, §3, §4, §5

Chain of PI3Kalpha (P42336 whole entry, canonical isoform): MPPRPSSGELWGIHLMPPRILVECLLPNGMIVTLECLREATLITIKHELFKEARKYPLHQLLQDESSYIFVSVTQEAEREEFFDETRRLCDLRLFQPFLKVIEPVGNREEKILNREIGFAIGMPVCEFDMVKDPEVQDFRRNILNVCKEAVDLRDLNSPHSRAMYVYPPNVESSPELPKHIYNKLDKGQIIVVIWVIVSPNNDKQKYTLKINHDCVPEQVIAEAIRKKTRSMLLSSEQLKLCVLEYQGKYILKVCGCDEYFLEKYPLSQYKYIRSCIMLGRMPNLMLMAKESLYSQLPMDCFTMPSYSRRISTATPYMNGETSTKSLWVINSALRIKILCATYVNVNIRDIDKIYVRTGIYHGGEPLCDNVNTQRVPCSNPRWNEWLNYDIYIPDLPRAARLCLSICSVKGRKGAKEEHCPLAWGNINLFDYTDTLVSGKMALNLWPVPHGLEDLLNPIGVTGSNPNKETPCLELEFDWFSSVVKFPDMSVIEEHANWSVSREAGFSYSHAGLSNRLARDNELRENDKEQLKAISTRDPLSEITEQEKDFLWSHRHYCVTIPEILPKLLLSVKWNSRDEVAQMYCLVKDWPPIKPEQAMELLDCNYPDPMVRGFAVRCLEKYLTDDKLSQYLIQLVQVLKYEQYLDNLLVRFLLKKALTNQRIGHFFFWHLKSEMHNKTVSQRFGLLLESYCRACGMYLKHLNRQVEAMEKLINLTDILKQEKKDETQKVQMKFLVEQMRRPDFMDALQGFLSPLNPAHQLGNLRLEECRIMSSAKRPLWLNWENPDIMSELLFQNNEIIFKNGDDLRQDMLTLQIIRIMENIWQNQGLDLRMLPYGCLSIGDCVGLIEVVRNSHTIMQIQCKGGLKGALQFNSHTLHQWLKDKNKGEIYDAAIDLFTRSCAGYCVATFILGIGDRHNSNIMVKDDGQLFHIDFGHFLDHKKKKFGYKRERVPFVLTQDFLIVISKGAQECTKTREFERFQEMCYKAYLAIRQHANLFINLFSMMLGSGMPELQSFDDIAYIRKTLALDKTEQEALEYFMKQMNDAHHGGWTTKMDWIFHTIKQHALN
Chain of PI3Kalpha (P27986 whole entry partner, canonical isoform): as the sequence (P27986 whole entry partner, canonical isoform) above

Selectivity versus PI3Kalpha [1] | IC50 [2] [nM] | Compound
>10 | 180 | Cc1nc(-c2cnn(C)c2)nc(N2CCN(C(=O)C3CC3)[C@H](C)C2)c1C#N [Compound 6-10, 4-[(3R)-4-(cyclopropylcarbonyl)-3-methylpiperazin-1-yl]-6-methyl-2-(1-methyl-1H-pyrazol-4-yl)pyrimidine-5-carbonitrile]
>10 | 110 | C[C@@H]1CN(c2nc(-c3cnn(C)c3)ncc2C#N)CCN1C(=O)C1CC1 [Compound 4-1, 4-[(3R)-4-(cyclopropylcarbonyl)-3-methylpiperazin-1-yl]-2-(1-methyl-1H-pyrazol-4-yl)pyrimidine-5-carbonitrile]
>10 | 86 | C[C@@H]1CN(c2nc(-c3cnn(C)c3)ncc2C#N)CCN1c1cccc(C#N)c1 [Compound 4-12, 4-[(3R)-4-(3-cyanophenyl)-3-methylpiperazin-1-yl]-2-(1-methyl-1H-pyrazol-4-yl)pyrimidine-5-carbonitrile]
>10 | 370 | C[C@@H]1CN(c2nc(-c3cnn(C)c3)ncc2C#N)CCN1C(=O)C1CCC1 [Compound 4-3, 4-[(3R)-4-(cyclobutylcarbonyl)-3-methylpiperazin-1-yl]-2-(1-methyl-1H-pyrazol-4-yl)pyrimidine-5-carbonitrile]
8 | 1500 | Cn1cc(-c2ncc(C#N)c(N3CCN(c4cccc(F)c4)C(C)(C)C3)n2)cn1 [Compound 3-1, 4-[4-(3-fluorophenyl)-3,3-dimethylpiperazin-1-yl]-2-(1-methyl-1H-pyrazol-4-yl)pyrimidine-5-carbonitrile]
>10 | 78 | C[C@@H]1CN(c2nc(-c3cnn(C)c3)ncc2C#N)CCN1c1cccc([N+](=O)[O-])c1 [Compound 4-11, 4-[(3R)-3-methyl-4-(3-nitrophenyl)piperazin-1-yl]-2-(1-methyl-1H-pyrazol-4-yl)pyrimidine-5-carbonitrile]
>10 | 240 | C[C@@H]1CN(c2nc(C#N)cc(-c3cnn(C)c3)n2)CCN1C(=O)C1CC1 [Compound 5-2, 2-[(3R)-4-(cyclopropylcarbonyl)-3-methylpiperazin-1-yl]-6-(1-methyl-1H-pyrazol-4-yl)pyrimidine-4-carbonitrile]
>10 | 21 | CC(C)CNc1nc(-c2cnn(C)c2)nc(N2CCN(C(=O)C3CC3)[C@H](C)C2)c1C#N [Compound 6-21, 4-[(3R)-4-(cyclopropylcarbonyl)-3-methylpiperazin-1-yl]-6-[(2-methylpropyl)amino]-2-(1-methyl-1H-pyrazol-4-yl)pyrimidine-5-carbonitrile]
>10 | 58 | COCCc1nc(N2CCN(C(=O)C3CC3)[C@H](C)C2)nc(-c2cnn(C)c2)c1C#N [Compound 6-12, 2-[(3R)-4-(cyclopropylcarbonyl)-3-methylpiperazin-1-yl]-4-(2-methoxyethyl)-6-(1-methyl-1H-pyrazol-4-yl)pyrimidine-5-carbonitrile]
>10 | 87 | C[C@@H]1CN(c2nc(-c3cnn(C)c3)ncc2C#N)CCN1C(=O)C1CC12CCCC2 (stereo partly drawn) [Compound 4-7, 2-(1-methyl-1H-pyrazol-4-yl)-4-[(3R)-3-methyl-4-(spiro[2.4]hept-1-ylcarbonyl)piperazin-1-yl]pyrimidine-5-carbonitrile]
>10 | 140 | Cc1nn(C)cc1-c1ncc(C#N)c(N2CCN(C(=O)C3CC3)[C@H](C)C2)n1 [Compound 6-28, 4-[(3R)-4-(cyclopropylcarbonyl)-3-methylpiperazin-1-yl]-2-(1,3-dimethyl-1H-pyrazol-4-yl)pyrimidine-5-carbonitrile]
>10 | 19 | C[C@@H]1CN(c2ncc(C#CCO)c(-c3cnn(C)c3)n2)CCN1C(=O)C1CC1 [Compound 5-1, 3-{2-[(3R)-4-(cyclopropylcarbonyl)-3-methylpiperazin-1-yl]-4-(1-methyl-1H-pyrazol-4-yl)pyrimidin-5-yl}prop-2-yn-1-ol]
>10 | 200 | CCCc1nc(-c2cnn(C)c2)nc(N2CCN(C(=O)C3CC3)[C@H](C)C2)c1C#N [Compound 6-24, 4-[(3R)-4-(cyclopropylcarbonyl)-3-methylpiperazin-1-yl]-2-(1-methyl-1H-pyrazol-4-yl)-6-propylpyrimidine-5-carbonitrile]

Continued, molecule first:

Compound | Selectivity versus PI3Kalpha [1] | IC50 [2] [nM]
Cn1cc(-c2ncc(C#N)c(N3CC4C[C@H]3CN4C(=O)C3CC3)n2)cn1 (stereo in doubt) [Compound 2-1, 4-[(1S,4R)-5-(cyclopropylcarbonyl)-2,5-diazabicyclo[2.2.1]hept-2-yl]-2-(1-methyl-1H-pyrazol-4-yl)pyrimidine-5-carbonitrile] | >10 | 160
N#Cc1cnc(N2CCOCC2)nc1N1CC2C[C@H]1CN2c1cccc(F)c1 (stereo in doubt) [Compound 1-23, 4-[(1S,4R)-5-(3-fluorophenyl)-2,5-diazabicyclo[2.2.1]hept-2-yl]-2-morpholin-4-ylpyrimidine-5-carbonitrile] | >10 | 400
CC(C)S(=O)(=O)N1C[C@@H]2CC1CN2c1nc(-c2cnn(C)c2)ncc1C#N (stereo in doubt) [Compound 2-13, 4-{(1S,4R)-5-[(1-methylethyl)sulfonyl]-2,5-diazabicyclo[2.2.1]hept-2-yl}-2-(1-methyl-1H-pyrazol-4-yl)pyrimidine-5-carbonitrile] | >10 | 470
Cn1cc(-c2ncc(C#N)c(N3CC4C[C@H]3CN4c3cccc(C4(C)CC4)c3)n2)cn1 (stereo in doubt) [Compound 1-12, 4-{(1S,4R)-5-[3-(1-methylcyclopropyl)phenyl]-2,5-diazabicyclo[2.2.1]hept-2-yl}-2-(1-methyl-1H-pyrazol-4-yl)pyrimidine-5-carbonitrile] | >10 | 410
Cn1cc(-c2ncc(C#N)c(N3CC4C[C@H]3CN4c3cccc(-n4cccc4)c3)n2)cn1 (stereo in doubt) [Compound 1-9, 2-(1-methyl-1H-pyrazol-4-yl)-4-{(1S,4R)-5-[3-(1H-pyrrol-1-yl)phenyl]-2,5-diazabicyclo[2.2.1]hept-2-yl}pyrimidine-5-carbonitrile] | >10 | 90
N#Cc1cnc(N2CCc3[nH]ncc3C2)nc1N1CC2C[C@H]1CN2c1cccc(F)c1 (stereo in doubt) [Compound 1-22, 4-[(1S,4R)-5-(3-fluorophenyl)-2,5-diazabicyclo[2.2.1]hept-2-yl]-2-(1,4,6,7-tetrahydro-5H-pyrazolo[4,3-c]pyridin-5-yl)pyrimidine-5-carbonitrile] | 10 | 950
Cn1cc(-c2ncc(C#N)c(N3CC4C[C@H]3CN4C(=O)C(C)(C)C)n2)cn1 (stereo in doubt) [Compound 2-5, 4-[(1S,4R)-5-(2,2-dimethylpropanoyl)-2,5-diazabicyclo[2.2.1]hept-2-yl]-2-(1-methyl-1H-pyrazol-4-yl)pyrimidine-5-carbonitrile] | >10 | 190
